Assay results reported in publication PMC11876601 (Molecular Systems Biology, 2025).
Read-outs that look alike come from different tables or passages of the source.

Legend:
[1] = test system: Dan-G cells; experiment: Drug combination viability screen (ATPlite, 72 h); assay type: cell-based, human; details: Bliss model
Method: (§1) Cell viability was assessed by measuring ATP levels to indicate metabolic activity.
(§2) Afterward, small amounts were transferred to 384-well intermediate plates (Greiner Bio-One GmbH, Germany). […] For drug combination screening, 1000 to 5000 cells were seeded into 384-well plates (CulturPlate™, Perkin Elmer, MA, USA) using a Multidrop™ Combi Reagent Dispenser (Thermo Scientific, MA, USA) in 50 µl medium per well 24 h prior to drug treatment (seeding densities see Appendix Table S1). […] The final DMSO concentration in each well was 0.2%. […] Eight wells per plate without library drug served as negative controls, and sixteen wells per plate containing 5 µM Staurosporine served as positive controls. Control plates not containing any drug were used to correct for incubation effects, and data quality was assessed by calculation of Z-prime of positive and negative controls according to1 Z-prime=1−3SDpos+3SDneg/[…] where SD is the standard deviation. […] Dose–response curves from the experimental and hypothetical data were compared, and shifts in AUC were used to describe combination effects (AUC∆ = AUChypothetical − AUCexperimental). […] Only combinations with R^2 > 0.8 in both conditions were considered in the synergy analysis.

[2] = test system: Capan-1 cells; experiment: Drug combination viability screen (ATPlite, 72 h); assay type: cell-based, human; details: Bliss model
Method: as §1, §2

[3] = test system: 13 PDAC cell lines; experiment: Phenotypic drug combination viability screen (ATPlite, 72 h), cell line panel; assay type: cell-based, human; details: single agent, 72 h
Method: as §1, §2

[4] = test system: Colo-357 cells; experiment: Drug combination viability screen (ATPlite, 72 h); assay type: cell-based, human; details: Bliss model
Method: as §1, §2

[5] = test system: HPDE (immortalized pancreatic duct cell line); experiment: Drug combination viability screen (ATPlite, 72 h); assay type: cell-based, human; details: for sensitization of HPDE cells to GEM: combination with GEM;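 as to AUC: area under vehicle-normalized viability curve scaled 0 to 100 percent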
Method: as §1, §2

[6] = test system: FAMPAC; experiment: cells; parameters: Viability of PDAC cell lines, ATPlite luminescence, 11-dose single-agent curve fit; details: 72 h, read-out: EC50 [nM]
Outline: (§3)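 cells (1000 to 5000 per well) seeded 24 h before drug addition in a screen at 0.2% final DMSO. Controls were drug-free wells (negative) and 5 µM staurosporine (positive).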

[7] = test system: PANC-1; experiment: cells; parameters: Viability of PDAC cell lines, ATPlite luminescence, 11-dose single-agent curve fit; details: Homo sapiens, PANC-1, 72 h, read-out: EC50 [nM]
Outline: as §3

[8] = test system: Capan-1; experiment: cells; parameters: Viability of PDAC cell lines, ATPlite luminescence, 11-dose single-agent curve fit; details: Homo sapiens, CAPAN-1, 72 h, read-out: EC50 [nM]
Outline: as §3

[9] = test system: PaTu-8988-T; experiment: cells; parameters: Viability of PDAC cell lines, ATPlite luminescence, 11-dose single-agent curve fit; details: Homo sapiens, PaTu 8988t, 72 h, read-out: EC50 [nM]
Outline: as §3

[10] = test system: AsPC-1; experiment: cells; parameters: Viability of PDAC cell lines, ATPlite luminescence, 11-dose single-agent curve fit; details: Homo sapiens, ASPC1, 72 h, read-out: EC50 [nM]
Outline: as §3

[11] = test system: HuP-T4; experiment: cells; parameters: Viability of PDAC cell lines, ATPlite luminescence, 11-dose single-agent curve fit; details: Homo sapiens, HuP-T4, 72 h, read-out: EC50 [nM]
Outline: as §3

[12] = test system: Colo-357; experiment: cells; parameters: Viability of PDAC cell lines, ATPlite luminescence, 11-dose single-agent curve fit; details: Homo sapiens, COLO357, 72 h, read-out: EC50 [nM]
Outline: as §3

[13] = test system: MiaPaCa-2; experiment: cells; parameters: Viability of PDAC cell lines, ATPlite luminescence, 11-dose single-agent curve fit; details: Homo sapiens, MIA PaCa-2, 72 h, read-out: EC50 [nM]
Outline: as §3

[14] = test system: BxPC-3; experiment: cells; parameters: Viability of PDAC cell lines, ATPlite luminescence, 11-dose single-agent curve fit; details: Homo sapiens, BXPC-3, 72 h, read-out: EC50 [nM]
Outline: as §3

[15] = test system: Dan-G; experiment: cells; parameters: Viability of PDAC cell lines, ATPlite luminescence, 11-dose single-agent curve fit; details: 72 h, read-out: EC50 [nM]
Outline: as §3

[16] = test system: PSN-1; experiment: cells; parameters: Viability of PDAC cell lines, ATPlite luminescence, 11-dose single-agent curve fit; details: Homo sapiens, PSN1, 72 h, read-out: EC50 [nM]
Outline: as §3

[17] = test system: Suit2-07; experiment: cells; parameters: Viability of PDAC cell lines, ATPlite luminescence, 11-dose single-agent curve fit; details: 72 h, read-out: EC50 [nM]
Outline: as §3

[18] = test system: HPDE; experiment: cells; parameters: Viability of PDAC cell lines, ATPlite luminescence, 11-dose single-agent curve fit; details: HPDE, 72 h, read-out: EC50 [nM]
Outline: as §3

[19] = test system: FAMPAC; experiment: cells; parameters: ATPlite luminescence viability of PDAC cell lines, 11-dose single-agent curves, 4-parameter fit; details: 72 h, read-out: EC50 [nM]
Outline: (§4)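 cells (1000 to 5000 per well) seeded 24 h before drug addition in a combination screen at 0.2% final DMSO. Controls were drug-free wells (negative) and 5 µM staurosporine (positive).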

[20] = test system: PANC-1; experiment: cells; parameters: ATPlite luminescence viability of PDAC cell lines, 11-dose single-agent curves, 4-parameter fit; details: Homo sapiens, PANC-1, 72 h, read-out: EC50 [nM]
Outline: as §4

[21] = test system: Capan-1; experiment: cells; parameters: ATPlite luminescence viability of PDAC cell lines, 11-dose single-agent curves, 4-parameter fit; details: Homo sapiens, CAPAN-1, 72 h, read-out: EC50 [nM]
Outline: as §4

[22] = test system: PaTu-8988-T; experiment: cells; parameters: ATPlite luminescence viability of PDAC cell lines, 11-dose single-agent curves, 4-parameter fit; details: Homo sapiens, PaTu 8988t, 72 h, read-out: EC50 [nM]
Outline: as §4

[23] = test system: AsPC-1; experiment: cells; parameters: ATPlite luminescence viability of PDAC cell lines, 11-dose single-agent curves, 4-parameter fit; details: Homo sapiens, ASPC1, 72 h, read-out: EC50 [nM]
Outline: as §4

[24] = test system: HuP-T4; experiment: cells; parameters: ATPlite luminescence viability of PDAC cell lines, 11-dose single-agent curves, 4-parameter fit; details: Homo sapiens, HuP-T4, 72 h, read-out: EC50 [nM]
Outline: as §4

[25] = test system: Colo-357; experiment: cells; parameters: ATPlite luminescence viability of PDAC cell lines, 11-dose single-agent curves, 4-parameter fit; details: Homo sapiens, COLO357, 72 h, read-out: EC50 [nM]
Outline: as §4

[26] = test system: MiaPaCa-2; experiment: cells; parameters: ATPlite luminescence viability of PDAC cell lines, 11-dose single-agent curves, 4-parameter fit; details: Homo sapiens, MIA PaCa-2, 72 h, read-out: EC50 [nM]
Outline: as §4

[27] = test system: BxPC-3; experiment: cells; parameters: ATPlite luminescence viability of PDAC cell lines, 11-dose single-agent curves, 4-parameter fit; details: Homo sapiens, BXPC-3, 72 h, read-out: EC50 [nM]
Outline: as §4

[28] = test system: Dan-G; experiment: cells; parameters: ATPlite luminescence viability of PDAC cell lines, 11-dose single-agent curves, 4-parameter fit; details: 72 h, read-out: EC50 [nM]
Outline: as §4

[29] = test system: PSN-1; experiment: cells; parameters: ATPlite luminescence viability of PDAC cell lines, 11-dose single-agent curves, 4-parameter fit; details: Homo sapiens, PSN1, 72 h, read-out: EC50 [nM]
Outline: as §4

[30] = test system: Suit2-07; experiment: cells; parameters: ATPlite luminescence viability of PDAC cell lines, 11-dose single-agent curves, 4-parameter fit; details: 72 h, read-out: EC50 [nM]
Outline: as §4

[31] = test system: HPDE; experiment: cells; parameters: ATPlite luminescence viability of PDAC cell lines, 11-dose single-agent curves, 4-parameter fit; details: HPDE, 72 h, read-out: EC50 [nM]
Outline: as §4

SMILES: CO[C@H]1C[C@@H]2CC[C@@H](C)[C@@](O)(O2)C(=O)C(=O)N2CCCC[C@H]2C(=O)O[C@H]([C@H](C)C[C@@H]2CC[C@@H](OCCO)[C@H](OC)C2)CC(=O)[C@H](C)/C=C(\C)[C@@H](O)[C@@H](OC)C(=O)[C@H](C)C[C@H](C)/C=C/C=C/C=C/1C [Everolimus]
- synergy with GEM [1]: synergized
- synergy with GEM [2]: synergized
- median AUC across all cell lines [3]: > 80%
- synergy with GEM [4]: synergized
- sensitization of HPDE cells to GEM [5]: strongly sensitized

SMILES: CO[C@H]1C[C@@H]2CC[C@@H](C)[C@@](O)(O2)C(=O)C(=O)N2CCCC[C@H]2C(=O)O[C@H]([C@H](C)C[C@@H]2CC[C@@H](O)[C@H](OC)C2)CC(=O)[C@H](C)/C=C(\C)[C@@H](O)[C@@H](OC)C(=O)[C@H](C)C[C@H](C)/C=C/C=C/C=C/1C [Rapamycin]
- synergy with GEM [1]: synergized
- synergy with GEM [2]: synergized
- median AUC across all cell lines [3]: > 80%
- synergy with GEM [4]: synergized
- sensitization of HPDE cells to GEM [5]: strongly sensitized
- EC50 [6]: 1.59 nM
- EC50 [7]: 4.67 nM
- EC50 [8]: 0.11 nM
- EC50 [9]: 0.05 nM
- EC50 [10]: 50.8 nM
- EC50 [11]: 1.13 nM
- EC50 [12]: 276 nM
- EC50 [13]: 1.11 nM
- EC50 [14]: 0.08 nM
- EC50 [15]: 0.09 nM
- EC50 [16]: 0.05 nM
- EC50 [17]: 7.19 nM
- EC50 [18]: 0.08 nM

SMILES: CO[C@H]1C[C@@H]2CC[C@@H](C)[C@@](O)(O2)C(=O)C(=O)N2CCCC[C@H]2C(=O)O[C@H]([C@H](C)C[C@@H]2CC[C@@H](OP(C)(C)=O)[C@H](OC)C2)CC(=O)[C@H](C)/C=C(\C)[C@@H](O)[C@@H](OC)C(=O)[C@H](C)C[C@H](C)/C=C/C=C/C=C/1C [Ridaforolimus]
- synergy with GEM [1]: synergized
- synergy with GEM [2]: synergized
- median AUC across all cell lines [3]: > 80%
- synergy with GEM [4]: synergized
- sensitization of HPDE cells to GEM [5]: strongly sensitized
- EC50 [6]: 0.13 nM
- EC50 [7]: 4.17 nM
- EC50 [8]: 31.4 nM
- EC50 [9]: 0.04 nM
- EC50 [10]: 0.22 nM
- EC50 [11]: 15.9 nM
- EC50 [12]: 127 nM
- EC50 [13]: 3.25 nM
- EC50 [14]: 0.13 nM
- EC50 [15]: 87.2 nM
- EC50 [16]: 0.26 nM
- EC50 [17]: 118 nM
- EC50 [18]: 0.56 nM

SMILES: CC(C)n1nc(-c2ccc3oc(N)nc3c2)c2c(N)ncnc21 [Sapanisertib]
- median AUC across all cell lines [3]: 54%
- EC50 [19]: 2.05 nM
- EC50 [20]: 70.5 nM
- EC50 [21]: 135 nM
- EC50 [22]: 3.95 nM
- EC50 [23]: 1.5 nM
- EC50 [24]: 1510 nM
- EC50 [25]: 10.8 nM
- EC50 [26]: 10.1 nM
- EC50 [27]: 11.2 nM
- EC50 [28]: 8.08 nM
- EC50 [29]: 23.2 nM
- EC50 [30]: 14.2 nM
- EC50 [31]: 11.7 nM
- AUC ([5]; single agent, HPDE): < 60%
